# Where two headings read alike, the source gives them in different places.
# Key:
# [1] = Solubility of Nystatin in aqueous γ-CD solutions (spectrophotometric); type: physicochemical; settings: for Nystatinkonzentration: 37 °C, 10 min schütteln
# Description: Ähnlich wie im Falle des Flavofungins wurde auch für Nystatin die Löslichkeit in γ-CD-Lösungen unterschiedlicher Konzentration ermittelt. Die verwendeten wäßrigen γ-CD-Lösungen hatten Konzentrationen von 0, 1, 2,5, 4, 5, 6, 7, 8, 9, 10 und 15 %. Pro ml wurden 20 mg Nystatin zu gesetzt. Die Lösungen wurden bei 37 °C 10 Minuten lang geschüttelt, dann wurde ihr Nystatingehalt spektrophotometrisch bestimmt. Ähnlich wie bei Flavofungin wurde gefunden, daß die Löslichkeit des Nystatins in wäßrigen γ-CD-Lösungen ansteigt und in 5 %iger γ-CD-Lösung etwa das 25fache, in 10 %iger γ-CD-Lösung etwa das 40fache der ursprünglichen Wasserlöslichkeit beträgt. Die Meßergebnisse sind in der Tabelle 2 zusammengestellt.
# Die aus dem anfänglich linearen Abschnitt der bei 37 °C aufgenommen Löslichkeitsisotherme berechnete scheinbare Stabilitätskonstante des Komplexes beträgt etwa 500.
# Weibliche CFY-Ratten = experiment: Mortality after subcutaneous administration in rats; type: in vivo; settings: subcutan, 150 mg/kg, observation one week
# Source text: (§1) • a) Die Resorption von Nystatin aus per os verabreichtem Nystatin-γ-CD-Komplex Die Resorption des Wirkstoffes wurde an Mäusen, an einem durch intravenöse Applikation einer Suspension von Candida albicans hervorgerufenen Sepsismodell untersucht. Die Sepsis verursachte innerhalb von 2-3 Tagen 100 %ige Mortalität. Den Versuchstieren wurde per os gemäß Beispiel 3 hergestellte, 8 % Nystatin enthaltende Komplex verabreicht. In einem Parallelversuch wurde Nystatin intravenös appliziert. Für beide Gruppen wurde die auf die unbehandelte Kontrolle bezogene Verlängerung der Überlebensdauer ermittelt. [formula] Wenn man diejenigen in Form des Komplexes per os verabreichten Nystatindosen mit denjenigen i.v. applizierten Nystatindosen vergleicht, die eine etwa gleiche Verlängerung der Überlebensdauer bewirkten (Tabelle 9, letzte Spalte),so läßt sich errechnen, daß aus dem Komplex durchschnittlich 6,2 % des Wirkstoffes in die Blutbahn gelangten. Bei den höchsten Dosen (i.v. 1,56 mg/kg, p.o. 25 mg/kg) ist das Zurückfallen der Überlebensdauer bereits auf die schwache Toxizität des Nystatins zurückzuführen. • b) Die Resorption von Nystatin aus subcutan appliziertem Nystatin-γ-CD-Komplex Weibliche CFY-Ratten eines durchschnittlichen Gewichtes von 180 g wurden mit Nystatin, mit Nystatin-γ-CD-Komplex (Wirkstoffgehalt9 8 %) beziehungsweise mit γ-CD behandelt. […]
# [2] = Blood level after subcutaneous administration (UV spectrum of serum); type: in vivo, CFY-Ratten; settings: subcutan, 200 mg/kg
# Source text: as §1
# [3] = Dissolution of Nystatin complex and Nystatin base material in water at 37 °C; type: physicochemical; settings: destilliertes Wasser, after the first 5 Minuten
# Description: Der auf die beschriebene Weise hergestellte Komplex zeigte bei den thermoanalytischen Untersuchungen im Vergleich zum Gemisch die gleichen Abweichungen wie der gemäß Beispiel 3 durch Lyophilisieren hergestellte Komplex. Die Löslichkeit von einer der Wirkstoffmenge von 10 mg/ml entsprechenden Menge Nystatin-γ-CD-Komplex und von Nystatingrundmaterial wurde in 15 ml destilliertem Wasser bei 37 °C untersucht. Die Lösungen wurden mit dem Magnetrührer bei einer Drehzahl von 150 min⁻¹ gerührt. Zu unterschiedlichen Zeitpunkten wurden Proben genommen, filtriert und spektrophotometrisch auf ihren Wirkstoffgehalt untersucht. Die Ergebnisse sind in der Tabelle 6 zusammengestellt.
# Das Spektrum der von der wäßrigen Suspension des Nystatingrundmaterials genommenen Proben war nicht auswertbar. […] Zuerst deformierte sich das Maximum um 290 nm und verschwand dann ganz, und im Bereich geringerer Wellenlänge zeigten sich neue Maxima, was auf Schädigung des konjugierten Chromophorsystems schließen läßt.
# [4] = cited from earlier work
# [5] = per os; cited from earlier work
structure (smiles),measurement,setting,value
C[C@@H]1[C@H](O)[C@@H](C)/C=C/C=C/CC/C=C/C=C/C=C/C=C/C(O[C@H]2O[C@H](C)[C@@H](O)[C@H](N)[C@@H]2O)CC2O[C@](O)(CC(O)C(O)CCC(O)CC(O)CC(O)CC(=O)O[C@H]1C)CC(O)C2C(=O)O (some centres unmarked) [Nystatin],Löslichkeit relative to ursprüngliche Wasserlöslichkeit,[1]; 5 %ige γ-CD-Lösung,~25 fache
same,Löslichkeit relative to ursprüngliche Wasserlöslichkeit,[1]; 10 %ige γ-CD-Lösung,~40 fache
same,Nystatinkonzentration,[1]; γ-CD-Konzentration 0 %,"0,20 mg/ml"
same,Nystatinkonzentration,[1]; γ-CD-Konzentration 1 %,"1,30 mg/ml"
same,Nystatinkonzentration,"[1]; γ-CD-Konzentration 2,5 %","2,36 mg/ml"
same,Nystatinkonzentration,[1]; γ-CD-Konzentration 4 %,"3,95 mg/ml"
same,Nystatinkonzentration,[1]; γ-CD-Konzentration 5 %,"4,70 mg/ml"
same,Nystatinkonzentration,[1]; γ-CD-Konzentration 6 %,"5,50 mg/ml"
same,Nystatinkonzentration,[1]; γ-CD-Konzentration 7 %,"6,30 mg/ml"
same,Nystatinkonzentration,[1]; γ-CD-Konzentration 8 %,"7,20 mg/ml"
same,Nystatinkonzentration,[1]; γ-CD-Konzentration 9 %,"8,10 mg/ml"
same,Nystatinkonzentration,[1]; γ-CD-Konzentration 10 %,"8,95 mg/ml"
same,Nystatinkonzentration,[1]; γ-CD-Konzentration 15 %,"8,20 mg/ml"
same,Mortalität (animals that died),Weibliche CFY-Ratten,kein einziges
same,Blutspiegel,[2],nichts nachzuweisen
same,Zersetzung in aqueous suspension (UV spectrum),[3],fortschreitende Zersetzung
same,Löslichkeit,[4]; 70 %iges wäßriges Isopropanol,"2,2 mg/ml"
same,Löslichkeit,[4]; 75 %-iges wäßriges Äthanol,4 mg/mL
same,maximale Löslichkeit,[4]; Methanol,"9,2-11,2 mg/ml"
same,Löslichkeit,[4]; reines Isopropanol,"0,62 mg/ml"
same,Löslichkeit,[4]; reines Äthanol,"0,55 mg/ml"
same,"Löslichkeit, increase",[4]; zusammen mit Polyvinylpyrrolidon ausgefällt (coprecipitate),8-10 mal
same,Blutspiegel,[5],überhaupt nicht meßbar

# — patent EP0147851B1, “Water soluble forms of polyene antibiotics, and process for preparing them” (priority 1983, dated 1985)
